Laboratory results as given in US10583387B2, “Guanidine compounds for carbon dioxide capture” (UT-Battelle, LLC, priority 2017, dated 2020).
In brackets after ≈: the same amount, converted by molar mass. Several values for one entry are separate records, joined by “and”; a condition that tells them apart may be missing. Identical values can stand only once. Values belong to the compound of their own block, whether it stands above or below them.

Key:
[1] = Reaction enthalpies of elementary steps in DAC with PyBIG (van't Hoff analyses); format: physicochemical; conditions: for ΔH, PyBIGH2(CO3)(H2O)4 crystallization: equation 6
Text: It is instructive to compare the thermodynamics of the CO2 absorption by PyBIG with those of other sorbents used in DAC. For example, amine sorbents have absorption enthalpies in the range of 60-80 kJ/mol. […] Thus, the actual CO2 ‘binding’ by PyBIG, corresponding to equations 3-5 combined, has an enthalpy of −109.8 kJ/mol. This is essentially the same as the enthalpy of CO2 absorption by aqueous NaOH. The crystallization step (equation 6) then adds −47 kJ/mol, to make the overall absorption process a combined −156 kJ/mol, which is about twice as exothermic compared to the CO2 absorption by a typical amine sorbent. However, dissolution of PyBIG (equation 1), which is endothermic (+42.5 kJ/mol) and essentially offsets the exothermic crystallization in step 6, and proton transfer from water to the guanidine groups (equation 2), which is also endothermic (+43.6), brings the overall enthalpy for CO2 capture by PyBIG (equation 7) to −70.7 kJ/mol.

[2] = Differential scanning calorimetry (DSC), enthalpy of CO2 release; format: physicochemical
Text: In order to determine the enthalpy of CO2 release from PyBIGH2(CO3)(H2O)4, differential scanning calorimetry (DSC) was employed. DSC is a common technique used in thermal analysis of solids. […] Unfortunately, the extensive overlap between the peaks prevented a determination of the heats associated with each thermal event. Instead, all the peaks were integrated together to obtain the overall enthalpy of desorption for PyBIGH2(CO3)(H2O)4, which amounts to 223±4 kJ/mol. While the overall reaction is highly endothermic, it should be taken into account that, for each CO2 molecule released from PyBIGH2(CO3)(H2O)4, there are four molecules of hydration that are desorbed (plus a fifth water molecule that is a bi-product of the carbonate decomposition).
In order to determine the fraction of the reaction enthalpy corresponding to the CO2 release from the carbonate, anhydrous PyBIGH2(CO3) was prepared by overnight vacuum pumping of PyBIGH2(CO3)(H2O)4 at 30° C. […] The difference between the measured endotherms of PyBIGH2(CO3)(H2O)4 and PyBIGH2(CO3), of 148 kJ/mol, can be assigned to dehydration of the carbonate salt. This corresponds to an average of 37 kJ/mol per water of hydration, which is close to the enthalpy of vaporization for liquid water, of 40.65 kJ/mol. While a large fraction of the heat required to release the CO2 is spent on water evaporation, part of the waste heat could be recovered by process modifications that involve water condensation steps in which the resulting heat is collected and re-used via heat exchangers. Alternatively, vacuum-drying operations that typically require less energy than heat drying can be employed for dehydration of PyBIGH2(CO3)(H2O)4 prior to CO2 release. The use of renewable sources of energy, such as concentrated solar power, is also herein being considered to make the overall DAC process energy sustainable.

[3] = CO2 release and PyBIG regeneration by solar oven heating; format: physicochemical
Method: The CO2 release from the PyBIGH2(CO3)(H2O)4 crystals was conducted by solar heating with a solar oven. The oven consists of a vacuum-insulated borosilicate tube placed in the focal point of two adjustable parabolic reflectors. The temperature inside the tube was monitored with a thermocouple. The PyBIGH2(CO3)(H2O)4 samples 36.4-45.0 mg, 0.095-0.118 mmol) were loaded in 1 mL glass vials, which were placed inside the oven tube. The solar oven was then placed in the full sun and oriented to capture the maximum amount of sunlight. The temperature was ramped to the targeted values of 120° C., 130° C., 140° C., 150° C., or 160° C. as fast as possible (typically within 3 to 10 minutes), then held within ±2° C. by intermittently moving the oven out of the sun, or/and closing the reflectors. The samples were subsequently removed from the tube, allowed to cool to room temperature, and weighed to determine their mass loss. The resulting yellow solids were analyzed by FTIR to confirm the disappearance of the carbonate and water peaks. The solar regeneration experiments were repeated three times at each temperature, and the average values and standard deviations calculated.
However, considering that this transformation is highly endothermic, the possibility of using concentrated solar power to render the process more energy sustainable was explored. For the initial small-scale proof of concept, a solar oven was used to heat solid PyBIGH2(CO3)(H2O)4 samples (˜38 mg, 0.1 mmol) at five different temperatures ranging between 120 and 160° C. FTIR analyses corroborated the release of CO2, most evidently noticeable by the disappearance of the strong peak at 1361 cm^−1 corresponding to the stretching mode of the carbonate anion.

[4] = Thermogravimetric analysis (TGA-MS) and oven heating of the carbonate crystals; format: physicochemical
Text: Thermogravimetric analysis coupled with mass spectrometry (TGA-MS) provided a more quantitative picture of the decomposition process.

[5] = cited from earlier work; for reaction rate of CO2 with sorbent: 25° C.
[6] = cited from earlier work
[7] = Equilibrium constant for the amino acid regeneration reaction (equation 11); format: physicochemical; conditions: glycine sorbent, ideal conditions
Text: In addition to the enthalpies of CO2 absorption and release, another important thermodynamic parameter is the equilibrium constant for the amino acid regeneration reaction (equation 10), which defines the efficiency limit for sorbent regeneration.

[8] = Accelerated aging of PyBIG (thermal stability); format: physicochemical
[9] = pKa by potentiometric titration; format: physicochemical; conditions: 25° C., read-out: pKa of the two guanidinium groups
physchem = conditions: pH 10, water, thermodynamic from solid
[10] = Aqueous solubility and solubility product (variable-temperature solubility measurements); conditions: saturated solution (~10 mM)
[11] = liquid; cited from earlier work

Compound: N=C(N)NN=Cc1cccc(C=NNC(=N)N)n1.O.O.O.O.O=C(O)O [PyBIGH2(CO3)(H2O)4]
ΔH, PyBIGH2(CO3)(H2O)4 crystallization [1]: -47 kJ/mol
average enthalpy per water of hydration [2]: 37 kJ/mol
overall enthalpy of desorption (DSC) ([2]; all peaks between 80 and 140° C. integrated): 223 ± 4 kJ/mol
enthalpy of dehydration of the carbonate salt ([2]; difference between endotherms of hydrated and anhydrous salt): 148 kJ/mol
Weight loss ([3]; 120 ° C., 30 min): 32.3 ± 0.8%
Weight loss ([3]; 130 ° C., 15 min): 32.3 ± 0.8%
Weight loss ([3]; 140 ° C., 10 min): 33.2 ± 0.8%
Weight loss ([3]; 150 ° C., 5 min): 32.5 ± 0.8%
Weight loss ([3]; 160 ° C., 2 min): 33.8 ± 0.3%
decomposition completion, isothermal TGA ([4]; 80° C., after 300 minutes): 77%
time to complete loss of carbon dioxide and water, isothermal TGA ([4]; 100° C.): 150 min
time to complete loss of carbon dioxide and water, isothermal TGA ([4]; 120° C.): 60 min
mass loss, temperature-ramped TGA ([4]; between 65 and 140° C.): 35.2%
mass loss of crystals heated in the oven ([4]; one hour at 120° C.): 34.3%

Compound: N=C(N)NN=Cc1cccc(C=NNC(=N)N)n1.O=C(O)O [PyBIGH2(CO3)]
enthalpy of the CO2 release (DSC) ([2]; anhydrous carbonate salt): 75 ± 6 kJ/mol

Compound: [Na+].[OH-] [NaOH]
flux of CO2 absorbed from air ([5]; 1 M solution): around 30 μmol/m^2/s

Compound: O=C(O)O [HCO3^−, bicarbonate]
ΔH, HCO3^− formation ([6]; equation 4): -50 kJ/mol

Compound: NCC(=O)O [glycine]
reaction rate of CO2 with sorbent [5]: ~13.9 kM/s

Compound: O=C=O [CO2, carbon dioxide]
ΔH, CO2 dissolution ([6]; equation 3): -19.4 kJ/mol

Compound: O=C([O-])[O-].[Ca+2] [CaCO3, reference compound]
CO2 release on solar heating ([3]; two hours at 160° C.): no CO2 release was observed

Compound: O=C(O)O [CO3^2−, carbonate]
ΔH, CO3^2− formation ([6]; equation 5): -40.4 kJ/mol

log Kreg [7]: 3.5
initial weight loss corresponding to CO2 and H2O loss ([8]; 120° C. in open air): 35.3%
weight loss during accelerated aging (TGA) ([8]; 120° C. in open air for a week, after initial loss): 0.5%
ΔH, PyBIG dissolution ([1]; equation 1): 42.5 kJ/mol
ΔH, PyBIG protonation ([1]; equation 2, sum of both protonation enthalpies plus twice water deprotonation): 43.6 kJ/mol and 43.6^a kJ/mol
ΔH, PyBIGH2(CO3)(H2O)4 crystallization [1]: -47 kJ/mol
enthalpy of CO2 'binding' ([1]; equations 3-5 combined): -109.8 kJ/mol
enthalpy of absorption incl. crystallization step ([1]; equations 3-6 combined): -156 kJ/mol
pKa [9]: 7.6
solubility (physchem): ~10 mM (≈ 2470 µg/mL)
pH of saturated solution [10]: about 10
no decomposition up to (TGA-MS) ([4]; regenerated compound): 190 °C
Compound: N=C(N)N/N=C/c1cccc(/C=N/NC(=N)N)n1 [PyBIG]

Compound: CNCC(=O)O [sarcosine]
reaction rate of CO2 with sorbent [5]: ca. 18.6 kM/s

Compound: O [water]
enthalpy of vaporization [11]: 40.65 kJ/mol
